According to US20250073358A1, “AROMATIC VINYL COMPOUND, METAL COMPLEX THEREOF, AND PREPARATION METHOD THEREFOR AND USE THEREOF” (SHANGHAI MAXINOVEL PHARMACEUTICALS CO., LTD., priority 2021, published 2025):

Experiments:
[1] = tested on: MC38-PDL1 tumor (MC-38-hPD-L1 cells); assay: Tumor targeting study in Micro-PET/CT scanning, bilateral tumor model (Effect Embodiment 3), left tumor; type: in vivo, C57BL/6J mice; conditions: Micro-PET/CT imaging, bilateral tumor mice
Source text: Tumor targeting study of compound 79 in Micro-PET/CT scanning 1. Experimental animal information: C57BL/6J mice, SPF grade; 15-21 g; model mouse construction: bilateral tumor • Construction of bilateral tumor model mice • Cell culture
(§1) Human-derived PD-L1 gene knock-in MC-38 cells (MC-38-hPD-L1 cells) were adherently cultured in vitro, and the culture conditions were DMEM medium plus 10% heat-inactivated fetal bovine serum and hygromycinB (final concentration was […]), and the cells were cultured at 37° C. with 5% CO2. Subculture of 2-3 times a week. When the cells were in the exponential growth phase, the cells were harvested, counted, and the left side of the mice was inoculated subcutaneously.
(§2) Mouse-derived MC-38 cells were adherently cultured in vitro, and the culture conditions were DMEM medium plus 10% heat-inactivated fetal bovine serum, and the cells were cultured at 37° C. with 5% CO2. Subculture of 2-3 times a week. When the cells were in the exponential growth phase, the cells were collected, counted, and the right side of the mice was inoculated subcutaneously.
(§3) 100 μL of 1×10^6 MC-38-hPD-L1 cell suspension was inoculated subcutaneously on the left dorsal side of C57BL/6J mice. The same mice were subcutaneously inoculated with 100 μL of 1×10^6 MC-38 cell suspension on the right dorsal side on the second day. After inoculation, the mice were fed normally, and after a certain number of days, tumor-bearing mice with the volume of bilateral transplanted tumor in the range of 150 mm^3−350 mm^3 were selected for test.
(§4) After quality control, compound 79 was diluted with 10% ethanol in physiological saline, and the drug was extracted and injected into each animal through tail vein. The administration volume was 100 μL/animal, and the administration dose was 100-200 μCi/animal. The study of Micro-PET/CT imaging was performed at 0.5 h, 1.5 h, 2.5 h, 3.5 h after injection of compound 79.

PD-1/PD-L1 = PD-1/PD-L1 (Homo sapiens (Human), UniProt Q9NZQ7); assay: Homogenouse Time-Resolved Fluorescence (HTRF) binding assay, PD-1/PD-L1
Protocol: Homogenouse Time-Resolved Fluorescence (HTRF) binding assay was used to detect the binding ability of the compound of the present disclosure to PD-1/PD-L1.
The purchased kit (CisBio, #64CUS000C-1) contains reagents required for experiments such as PD-1, PD-L1, anti-tag1-Eu, Anti-tag2-XL665, Dilute Buffer, and Detection Buffer.
• 1. The compound was configured with 100% DMSO into 10 concentrations with a concentration gradient of 3 times. • 2. The DMSO solution of the compound was added to Dilute Buffer solution, and the mixture was mixed well and transferred to a 96-well plate. • 3. PD-L1 was diluted with Dilute Buffer solution and then added to the above 96-well plate. • 4. PD-1 was diluted with Dilute Buffer solution and then added to the above 96-well plate, and incubated at room temperature for 30 minutes. • 5. One part of anti-tag1-Eu and one part of Anti-tag2-XL665 were added to Detection Buffer solution, and the mixture was mixed well and transferred to the above 96-well plate. • 6. The mixture in the 96-well plate was incubated at room temperature for 1 to 24 hours. • 7. The HTRF values were read with Envision.

[2] = tested on: MC38-PDL1 tumor (MC-38-hPD-L1 cells); assay: Tumor targeting study in Micro-PET/CT scanning, bilateral tumor model (Effect Embodiment 4), left tumor; type: in vivo, C57BL/6J mice; conditions: Micro-PET/CT imaging, bilateral tumor mice
Protocol: • Tumor targeting study of compound 80 in Micro-PET/CT scanning • Experimental animal information: C57BL/6J mice, SPF grade; 15-21 g; • Construction of Bilateral Tumor Model Mice: • Cell Culture
as §1, §2, §3
as §4, with “80” for “79”, “80.” for “79.”

tumor = assay: Inhibitory effect on tumor in tumor-bearing mice; type: in vivo, C57/BL6 mice; conditions: tail vein injection, 45 MBq per mouse, compared with the control group (PBS)
Source text: • 1. Inhibitory effect of compound 78 on tumor • 1.1 Experimental animal information: tumor-bearing C57/BL6 mice; SPF grade; weight range: 17-20 g; Shanghai Qi'up Biomedical Technology Co., Ltd. • 1.2 Experimental process
Ten tumor-bearing mice with tumor volumes of 10-100 mm^3 were systematically and randomly divided into 2 groups according to tumor size, with 5 mice in each group, corresponding to PBS and compound 78 respectively. After anesthesia with isoflurane, tumor-bearing mice were injected into the tail vein with compound 78 with 45 MBq (approximately 1.2 mCi) per mouse and a volume of 0.2 mL. After administration, the tumor size and weight of the animals were measured periodically, and the tumor growth curve was drawn to understand the inhibitory effect of the drug on tumor.

Sequence of PD-1/PD-L1 (Q9NZQ7 19-238): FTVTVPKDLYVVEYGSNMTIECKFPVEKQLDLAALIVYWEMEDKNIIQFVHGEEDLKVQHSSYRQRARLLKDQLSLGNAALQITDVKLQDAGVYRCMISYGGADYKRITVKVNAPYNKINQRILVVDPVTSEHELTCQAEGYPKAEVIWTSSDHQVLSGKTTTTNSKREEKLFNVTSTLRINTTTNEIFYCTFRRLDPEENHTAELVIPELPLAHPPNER

Row | Structure (SMILES) | uptake value of left tumor (MC38-PDL1) compared with right tumor (MC38) [1] | IC50 (PD-1/PD-L1) [nM] | uptake value of left tumor (MC38-PDL1) compared with right tumor (MC38) [2] | inhibition of tumor growth (tumor)
1 | N#Cc1c(-c2ccccc2)ccnc1/C=C/c1cc(OCC2CCN(C(=O)CN3CCN(CC(=O)[O-])CCN(CC(=O)[O-])CC3)CC2)c(CN2CCCC[C@H]2C(=O)O)cc1C(F)(F)F.[Al+3].[F-] [Compound 60] | significantly higher |  |  | 
2 | Cc1c(/C=C/c2cc(OCCCCCCNC(=O)CN3CCN(CC(=O)[O-])CCN(CC(=O)[O-])CCN(CC(=O)[O-])CC3)c(CN3CCCC[C@H]3C(=O)O)cc2C(F)(F)F)cccc1-c1ccccc1.[Ga+3] [Compound 28] |  | 0.562 | significantly higher | 
3 | Cc1ccc(CCCC(=O)NCCCC[C@H](NC(=O)CN2CCN(CC(=O)O)CCN(CC(=O)O)CCN(CC(=O)O)CC2)C(=O)NCCCCCCOc2cc(/C=C/c3cccc(-c4ccccc4)c3C)c(C(F)(F)F)cc2CN2CCCC[C@H]2C(=O)O)cc1 [Compound 27] |  | 13.6 | significantly higher | 
4 | Cc1c(/C=C/c2cc(OCCCCNC(=O)CN3CCN(CC(=O)[O-])CCN(CC(=O)[O-])CC3)c(CN3CCCC[C@H]3C(=O)O)cc2C(F)(F)F)cccc1-c1ccccc1.[Al+3].[F-] [Compound 62] | significantly higher | 0.529 |  | 
5 | Cc1c(/C=C/c2cc(OCCNC(=O)C3CCN(C(=O)CN4CCN(CC(=O)O)CCN(CC(=O)O)CCN(CC(=O)O)CC4)CC3)c(CN3CCCC[C@H]3C(=O)O)cc2C(F)(F)F)cccc1-c1ccccc1 [Compound 36] |  | 0.521 | significantly higher | 
6 | Cc1c(/C=C/c2cc(OCCCCNC(=O)CN3CCN(CC(=O)O)CCN(CC(=O)O)CCN(CC(=O)O)CC3)c(CN3CCCC[C@H]3C(=O)O)cc2C(F)(F)F)cccc1-c1ccccc1 [Compound 8] |  | 0.522 | significantly higher | 
7 | Cc1c(/C=C/c2cc(OCCOCCN3CCN(CC(=O)[O-])CCN(CC(=O)[O-])CCN(CC(=O)[O-])CC3)c(CN3CCCC[C@H]3C(=O)O)cc2C(F)(F)F)cccc1-c1ccccc1.[68Ga+3] [Compound 75] |  |  | significantly higher | 
8 | COc1cc(C(=O)Nc2cccc(-c3cccc(/C=C/c4cc(OCCOCCN5CCN6CCN(CC5)CC(=O)[O][Al]([F])[O]C(=O)C6)c(CN5CCCC[C@H]5C(=O)O)cc4C(F)(F)F)c3C)c2C)ncc1CN1CCCC[C@H]1C(=O)O [Compound 82] | significantly higher |  |  | 
9 | Cc1c(/C=C/c2cc(OCCNC(=O)C3CCC(CNC(=O)CN4CCN(CC(=O)O)CCN(CC(=O)O)CCN(CC(=O)O)CC4)CC3)c(CN3CCCC[C@H]3C(=O)O)cc2C(F)(F)F)cccc1-c1ccccc1 (stereo partly shown) [Compound 35] |  | 0.766 | significantly higher | 
10 | Cc1c(/C=C/c2cc(OCC3CCN(C(=O)CN4CCN(CC(=O)O)CCN(CC(=O)O)CCN(CC(=O)O)CC4)CC3)c(CN3CCCC[C@H]3C(=O)O)cc2C(F)(F)F)cccc1-c1ccccc1 [Compound 37] |  | 0.729 | significantly higher | 
11 | N#Cc1c(-c2ccccc2)ccnc1/C=C/c1cc(OCCCCCN2CCN(CC(=O)[O-])CCN(CC(=O)[O-])CC2)c(CN2CCCC[C@H]2C(=O)O)cc1C(F)(F)F.[Al+3].[F-] [Compound 58] | significantly higher |  |  | 
12 | Cc1c(/C=C/c2cc(OCCOCCN3CCN(CC(=O)O)CCN(CC(=O)O)CCN(CC(=O)O)CC3)c(CN3CCCC[C@H]3C(=O)O)cc2C(F)(F)F)cccc1-c1ccccc1 [Compound 7] |  | 0.969 | significantly higher | 
13 | Cc1ccc(CCCC(=O)NCCCC[C@H](NC(=O)CN2CCN(CC(=O)O)CCN(CC(=O)O)CCN(CC(=O)O)CC2)C(=O)NCCCCCCOc2cc(/C=C/c3cccc(-c4ccccc4)c3C)c(C(F)(F)F)cc2CN2CCCC[C@H]2C(=O)O)cc1 [Compound 26] |  | 33.2 |  | very good therapeutic effects on inhibiting tumor growth
14 | Cc1ccc(CCCC(=O)NCCCC[C@H](NC(=O)CN2CCN(CC(=O)O)CCN(CC(=O)O)CCN(CC(=O)O)CC2)C(=O)NCCCCOc2cc(/C=C/c3cccc(-c4ccccc4)c3C)c(C(F)(F)F)cc2CN2CCCC[C@H]2C(=O)O)cc1 [Compound 12] |  | 32.5 |  | very good therapeutic effects on inhibiting tumor growth
15 | Cc1c(/C=C/c2cc(OCCCNC(=O)CN3CCN(CC(=O)O)CCN(CC(=O)O)CC3)c(CN3CCCC[C@H]3C(=O)O)cc2C(F)(F)F)cccc1-c1ccccc1 [Compound 64] | significantly higher | 0.7 |  | 
16 | Cc1cc(CN2CCCC[C@H]2C(=O)O)c(OCCCCCN2CCN(CC(=O)O)CCN(CC(=O)O)CCN(CC(=O)O)CC2)cc1/C=C/c1cccc(-c2ccccc2)c1C [Compound 72] |  | 112 |  | very good therapeutic effects on inhibiting tumor growth
